Source: the CheMixHub viscosity set

Assay: xn = mol fraction of the nth substance listed

CC#N + CC(C)O
Details | viscosity [mPa·s]
293.15 K, 101.32 kPa, x1 = 0.0526 | 1.921
293.15 K, 101.32 kPa, x1 = 0.0771 | 1.736
293.15 K, 101.32 kPa, x1 = 0.1018 | 1.572
293.15 K, 101.32 kPa, x1 = 0.2227 | 1.15
293.15 K, 101.32 kPa, x1 = 0.3314 | 0.8622
293.15 K, 101.32 kPa, x1 = 0.3989 | 0.7354
293.15 K, 101.32 kPa, x1 = 0.55 | 0.5657
293.15 K, 101.32 kPa, x1 = 0.625 | 0.502
293.15 K, 101.32 kPa, x1 = 0.6893 | 0.4639
293.15 K, 101.32 kPa, x1 = 0.7624 | 0.4194
293.15 K, 101.32 kPa, x1 = 0.864 | 0.3823
298.15 K, 101 kPa, x1 = 0.1056 | 1.372
298.15 K, 101 kPa, x1 = 0.1688 | 1.145
298.15 K, 101 kPa, x1 = 0.2531 | 0.923
298.15 K, 101 kPa, x1 = 0.4135 | 0.653
298.15 K, 101 kPa, x1 = 0.5014 | 0.556
298.15 K, 101 kPa, x1 = 0.6077 | 0.473
298.15 K, 101 kPa, x1 = 0.7093 | 0.424
298.15 K, 101 kPa, x1 = 0.8276 | 0.373
298.15 K, 101 kPa, x1 = 0.9013 | 0.356
298.15 K, 101.3 kPa, x1 = 0.1399 | 1.254
298.15 K, 101.3 kPa, x1 = 0.2679 | 0.846
298.15 K, 101.3 kPa, x1 = 0.3855 | 0.66
298.15 K, 101.3 kPa, x1 = 0.4939 | 0.541
298.15 K, 101.3 kPa, x1 = 0.5942 | 0.482
298.15 K, 101.3 kPa, x1 = 0.6871 | 0.419
298.15 K, 101.3 kPa, x1 = 0.7736 | 0.372
298.15 K, 101.3 kPa, x1 = 0.8541 | 0.343
298.15 K, 101.3 kPa, x1 = 0.9295 | 0.342
303.15 K, 101 kPa, x1 = 0.1056 | 1.088
303.15 K, 101 kPa, x1 = 0.1688 | 0.918
303.15 K, 101 kPa, x1 = 0.2531 | 0.762
303.15 K, 101 kPa, x1 = 0.4135 | 0.551
303.15 K, 101 kPa, x1 = 0.5014 | 0.482
303.15 K, 101 kPa, x1 = 0.6077 | 0.417
303.15 K, 101 kPa, x1 = 0.7093 | 0.382
303.15 K, 101 kPa, x1 = 0.8276 | 0.341
303.15 K, 101 kPa, x1 = 0.9013 | 0.327
303.15 K, 101.3 kPa, x1 = 0.1399 | 1.114
303.15 K, 101.3 kPa, x1 = 0.2679 | 0.758
303.15 K, 101.3 kPa, x1 = 0.3855 | 0.599
303.15 K, 101.3 kPa, x1 = 0.4939 | 0.502
303.15 K, 101.3 kPa, x1 = 0.5942 | 0.45
303.15 K, 101.3 kPa, x1 = 0.6871 | 0.394
303.15 K, 101.3 kPa, x1 = 0.7736 | 0.356
303.15 K, 101.3 kPa, x1 = 0.8541 | 0.327
303.15 K, 101.3 kPa, x1 = 0.9295 | 0.326
303.15 K, 101.32 kPa, x1 = 0.0526 | 1.464
303.15 K, 101.32 kPa, x1 = 0.0771 | 1.361
303.15 K, 101.32 kPa, x1 = 0.1018 | 1.239
303.15 K, 101.32 kPa, x1 = 0.2227 | 0.9168
303.15 K, 101.32 kPa, x1 = 0.3314 | 0.7097
303.15 K, 101.32 kPa, x1 = 0.3989 | 0.6154
303.15 K, 101.32 kPa, x1 = 0.55 | 0.4831
303.15 K, 101.32 kPa, x1 = 0.625 | 0.4366
303.15 K, 101.32 kPa, x1 = 0.6893 | 0.407
303.15 K, 101.32 kPa, x1 = 0.7624 | 0.378
303.15 K, 101.32 kPa, x1 = 0.864 | 0.344
308.15 K, 101 kPa, x1 = 0.1056 | 0.871
308.15 K, 101 kPa, x1 = 0.1688 | 0.739
308.15 K, 101 kPa, x1 = 0.2531 | 0.635
308.15 K, 101 kPa, x1 = 0.4135 | 0.475
308.15 K, 101 kPa, x1 = 0.5014 | 0.42
308.15 K, 101 kPa, x1 = 0.6077 | 0.372
308.15 K, 101 kPa, x1 = 0.7093 | 0.345
308.15 K, 101 kPa, x1 = 0.8276 | 0.312
308.15 K, 101 kPa, x1 = 0.9013 | 0.302
308.15 K, 101.3 kPa, x1 = 0.1399 | 0.995
308.15 K, 101.3 kPa, x1 = 0.2679 | 0.687
308.15 K, 101.3 kPa, x1 = 0.3855 | 0.546
308.15 K, 101.3 kPa, x1 = 0.4939 | 0.465
308.15 K, 101.3 kPa, x1 = 0.5942 | 0.417
308.15 K, 101.3 kPa, x1 = 0.6871 | 0.37
308.15 K, 101.3 kPa, x1 = 0.7736 | 0.331
308.15 K, 101.3 kPa, x1 = 0.8541 | 0.311
308.15 K, 101.3 kPa, x1 = 0.9295 | 0.309
313.15 K, 101.3 kPa, x1 = 0.1399 | 0.889
313.15 K, 101.3 kPa, x1 = 0.2679 | 0.623
313.15 K, 101.32 kPa, x1 = 0.0526 | 1.125
313.15 K, 101.32 kPa, x1 = 0.0771 | 1.047
313.15 K, 101.32 kPa, x1 = 0.1018 | 0.991
313.15 K, 101.32 kPa, x1 = 0.2227 | 0.7301
313.15 K, 101.32 kPa, x1 = 0.3314 | 0.5949
313.15 K, 101.32 kPa, x1 = 0.3989 | 0.5253
313.15 K, 101.32 kPa, x1 = 0.55 | 0.4201
313.15 K, 101.32 kPa, x1 = 0.625 | 0.3817
313.15 K, 101.32 kPa, x1 = 0.6893 | 0.361
313.15 K, 101.32 kPa, x1 = 0.7624 | 0.3321
313.15 K, 101.32 kPa, x1 = 0.864 | 0.3081
323.15 K, 101 kPa, x2 = 0.0989 | 0.289
323.15 K, 101 kPa, x2 = 0.1994 | 0.312
323.15 K, 101 kPa, x2 = 0.2943 | 0.34
323.15 K, 101 kPa, x2 = 0.3965 | 0.378
323.15 K, 101 kPa, x2 = 0.4864 | 0.427
323.15 K, 101 kPa, x2 = 0.6077 | 0.499
323.15 K, 101 kPa, x2 = 0.7049 | 0.58
323.15 K, 101 kPa, x2 = 0.8007 | 0.685
323.15 K, 101 kPa, x2 = 0.8971 | 0.815
323.15 K, 101.32 kPa, x1 = 0.0526 | 0.9024
323.15 K, 101.32 kPa, x1 = 0.0771 | 0.8427
323.15 K, 101.32 kPa, x1 = 0.1018 | 0.7839
323.15 K, 101.32 kPa, x1 = 0.2227 | 0.6091
323.15 K, 101.32 kPa, x1 = 0.3314 | 0.5031
323.15 K, 101.32 kPa, x1 = 0.3989 | 0.4466
323.15 K, 101.32 kPa, x1 = 0.55 | 0.3731
323.15 K, 101.32 kPa, x1 = 0.625 | 0.3434
323.15 K, 101.32 kPa, x1 = 0.6893 | 0.329
323.15 K, 101.32 kPa, x1 = 0.7624 | 0.3054
323.15 K, 101.32 kPa, x1 = 0.864 | 0.2835
